Read-outs that look alike come from different tables or passages of the source.
Experiments:
[1] = β-sheet content by ATR-FT-IR; assay type: physicochemical; conditions: Fig. S7 panel A; β-sheet content by ATR-FT-IR
Experimental: For ATR FT–IR spectroscopy measurements, 200 µL of the respective 1 mg/mL PNF solution was lyophilized and the resulting powder used for measurement. All spectra were recorded on a Bruker Tensor 27 spectrometer with a diamond crystal as ATR element (PIKE MiracleTM, spectral resolution 2 cm^-1). Every sample was measured with 64 scans. Data were analyzed with OriginLab software and calculation of β–sheet content was conducted according to a previous report. TEM. For TEM measurements 5 µL of PNF fibrils (1 mg/mL) were placed on copper grids coated with carbon and formvar layer (300 mesh, Plano GmbH). After 10 min incubation time, the grids were staining with 4% uranyl acetate solution for 2.5 min and washed with water. Measurements were performed on a Jeol 1400 electron microscope with 120 kV acceleration voltage. CR Assay. For the determination of the amount of peptide monomer converting into nanostructures the amine reactive dye fluorescamine was used analogous to a previous reported protocol. Briefly, 100 µL of the preformed PNF solution was centrifuged in a Vivaspin 500 tube (3 kDa MWCO) to separate fibers from free peptide monomer (16200 x g, 4 °C, 45 min). The filtrate and 100 μL of the non-filtered PNF sample were lyophilized and dissolved in 30 μL DMSO. 10 μL of the filtrate and non-filtered DMSO samples were submitted in a black UV Star® 384 microliter well–plates (Greiner bio–one) and 3 μL of the fluorescamine solution (10 mg/mL, DMSO) was added to measure the fluorescence enhancement. After 20 min of incubation at RT, fluorescence was recorded on an Infinite® M1000 PRO microplate reader (Tecan) at λem = 470 nm upon excitation at λex = 365 nm with 10 nm bandwidths and multiple reads per well (3×3). Measurements were repeated in triplicates and averaged with standard deviation. All values were calculated as n-fold fluorescence enhancement (DMSO only as a reference was set to 1). The conversion rate CR was defined according to the equation Eq. (3).3 CR=100−100×fluorescenceintensityfiltrate/fluorescenceintensityoriginal[%]

[2] = assay type: physicochemical; conditions: for ThT Cat. / ThT-Fluorescence (categorical): ThT-active if fluorescence at least twice the control
Experimental: 4 µL of 1 mg/mL peptide fibrils solution is added to a 20 µL, 50 µM ThT–solution in PBS. The mixture is incubated for 15 min at RT to allow binding of ThT dye with β–sheet rich structures. For reference PBS (4 µL) was added instead of peptide fibril solution. The samples were placed in black UV Star® 384 microliter well–plates (Greiner bio–one). Fluorescence spectra were recorded on an Infinite® M1000 PRO microplate reader (Tecan) at λem = 488 nm upon excitation at λex = 440 nm with 10 nm bandwidths and multiple reads per well (3×3). Measurements were repeated in triplicates and averaged with standard deviation. […] Zeta-Potential. For the determination of the surface charge of aggregated peptides zeta-potential measurements were conducted with a Zetasizer Nano ZS, Malvern Instruments. Unless stated otherwise the peptides were dissolved from DMSO (10 mg/mL) in PBS (pH 7.4) to concentration of 1 mg/mL and incubated for 1d at RT. Just before the measurement the 60 µL of the peptides were further diluted in 600 µL KCl (aq, 1 mM) in a 1 mL disposable folded capillary cells (DTS–1060, Zetasizer Nano series, Malvern). The zeta potential of the peptides was derived from the electrophoretic mobility based on the Smoluchowski formula. All measurements were averaged over two individually performed experiments and conducted in triplicates for each sample. Aggregate analysis. […] Furthermore, fluorescence microscopy was conducted by staining 1 µL preformed fibrils (1 mg/mL) with 9 µL ThT (50 µM). Brightfield microscopy was performed simultaneously to evaluate aggregation also for non ThT-active fibrils. The measurements were performed on a Leica DMi8 microscope with 10x air objective and equipped with a Leica MC170 HD camera with a filter setting λem = 527/30 nm upon excitation at λex = 480/40 nm) and processed with the Leica LASX software. To quantify size and number of microscopic aggregation of particles > 10 µm^2 at least 3 independently measured images were analyzed via the 3D object counter analysis tool of ImageJ, v 1.53f51. Sum–frequency generation. The SFG experiments were carried out with a femtosecond Ti: Sapphire amplified laser system (Spitfire Ace, Spectra–Physics, 800 nm, 40 fs, 1 kHz) with 5 W output power. We used 2 W to pump an optical parametric amplifier (TOPAS, light conversion) with a non–collinear difference frequency generation stage to generate broadband IR pulses. Another 1 W of the laser output passed through an etalon to generate narrowband visible pulses (10 cm^-1). The incident angles of the visible and IR beams were 36° and 41° with respect to the surface normal, respectively. The visible (13 µJ) and IR (5 µJ) pulses were overlapped spatially and temporally at the sample position. Subsequently, the generated SFG pulse was guided into a spectrograph (Acton SP 300i, Princeton Instruments), and detected with an EMCCD (Newton, Andor Technology). To avoid IR absorption of water vapor, we purged N2 for the measurement. All spectra were collected in the ssp (denoting s-, s- and p-polarized SFG, visible and IR, respectively) polarization combination. The spectra were normalized to the non–resonant signal taken from z–cut quartz after subtracting a background spectrum.
1. Remarks on experimental parameters and bioinformatic descriptors

[3] = tested on: HIV-1 infection of TZM-bl cells; assay: HIV-1 infectivity enhancement assay, β-galactosidase luminescence; assay type: cell-based; conditions: for Rel-EFC: infection relative to EF-C (QCKIKQIINMWQ = 1); for Log10 Infection Rel EFC: log10 of infection relative to EF-C; for Log Infectivity: Fig. S7 panel A (plotted against β-sheet content), Log10 infection relative to EF-C; for Log10 Infection Rel EF-C: HIV-1 infection of TZM-bl cells; for Abs. Inf.: β-galactosidase luminescence; for Infection (FigS19 A): mean of 3 replicates
[4] = TZM-bl cells, asymmetric std dev errors
[5] = Log10 of infection rate relative to EF-C, Figure 3A source data
[6] = infection rate relative to EF-C, log10, data of Figure 2D
[7] = infection rate relative to EF-C, log10, source data of Figure 2C
[8] = Log10 of infection relative to EF-C, all peptides of FigS16
[9] = absolute HIV-1 infection signal, TZM-bl cells
[10] = ThT fluorescence category, 1 if Rel. ThT >2

| Substance | b -sheet / % [1] [%] | Tht category (> 2 to blank = +) ([2]; Fig S10 panel D) | ThT Cat, ([2]; ThT category, 1 if Rel. ThT >2) | ThT Cat. ([2]; ThT category, 1 if Rel. ThT >2) | ThT Cat. / ThT-Fluorescence (categorical) [2] | Rel-EFC ([3]; 1.3 µM peptide) | Log10 Infection Rel EFC ([3]; 1.3 µM peptide) | Log Infectivity [3, 4] | Log10 Infection Rel EF-C [3, 5] | Log10 Infection Rel EF-C [3, 6] | Log10 Infection Rel EF-C [3, 7] | Log10 of Rel to EFC (Feb2021) [3, 8] | ThT Cat, ([2]; FigS12 panel B) | ThT Cat. [2, 10] | further results |
| --- | --- | --- | --- | --- | --- | --- | --- | --- | --- | --- | --- | --- | --- | --- | --- |
| CKFKQFFNM | 41.58 | 1 (ThT. Cat is 1, if Rel. ThT >2) | 1 (ThT. Cat is 1, if Rel. ThT >2) | 1 (ThT. Cat is 1, if Rel. ThT >2) | 1 (ThT. Cat is 1, if Rel. ThT >2) | 0,41 | -0,39 | -0.3892 | -0.39 | -0.3892 | -0.3892 | -0.39 |  |  | Abs. Inf. ([3]; absolute infection signal, HIV-1 on TZM-bl cells): 15720; Log10 Inf. rel. to EF-C ([3]; log10 of HIV-1 infection of TZM-bl cells relative to EF-C (EF-C = 0)): -0.3892 |
| CKIKIQINMW | 42.9134 | 0 (ThT-inactive (N-Fold <2)) | 0 (ThT-inactive (N-Fold <2)) | 0 (ThT-inactive (N-Fold <2)) | 0 (ThT-inactive (N-Fold <2)) | 1,29 | 0,11 | 0.1122 | 0.11 | 0.1122 | 0.1122 | 0.11 |  |  | Abs. Inf. [3, 9]: 7253 |
| CKIKQIIRGD |  |  | 0 (ThT-inactive (N-Fold <2)) |  | 0 (ThT-inactive (N-Fold <2)) | 0,05 | -1,31 |  | -1.31 | -1.311 | -1.311 |  | 0 (ThT-inactive (N-Fold <2)) | 0 (ThT-inactive (N-Fold <2)) |  |
| CQFQFQF | 34.9 | 1 (ThT. Cat is 1, if Rel. ThT >2) | 1 (ThT. Cat is 1, if Rel. ThT >2) |  | 1 (ThT. Cat is 1, if Rel. ThT >2) | 0,35 | -0,45 | -0.4519 | -0.45 | -0.4519 | -0.4519 | -0.45 |  | 1 (ThT. Cat is 1, if Rel. ThT >2) |  |
| HHHHKAKAKAKAWWWW | 40.26 | 1 (ThT. Cat is 1, if Rel. ThT >2) | 1 (ThT. Cat is 1, if Rel. ThT >2) | 1 (ThT. Cat is 1, if Rel. ThT >2) | 1 (ThT. Cat is 1, if Rel. ThT >2) | 0,09 | -1,05 | -1.048 | -1.05 | -1.048 | -1.048 |  | 1 (ThT. Cat is 1, if Rel. ThT >2) |  | Tht category (> 2 to blank = +) ([2]; FigS12 panel A): 1 (ThT. Cat is 1, if Rel. ThT >2); Abs. Inf. [3, 9]: 3233 |
| HHHHKAKAKAKAYYYY | 44.29 | 0 (ThT-inactive (N-Fold <2)) | 0 (ThT-inactive (N-Fold <2)) |  | 0 (ThT-inactive (N-Fold <2)) | 0,01 | -1,88 | -1.883 | -1.88 | -1.883 | -1.883 |  | 0 (ThT-inactive (N-Fold <2)) | 0 (ThT-inactive (N-Fold <2)) | Tht category (> 2 to blank = +) ([2]; FigS12 panel A): 0 (ThT-inactive (N-Fold <2)) |
| HHHHKIKIKIKIWWWW [TM4] |  |  |  |  |  |  |  |  |  |  |  |  |  |  | Tht rel to blank (42.1851851851852) ([2]; ThT fluorescence relative to blank, blank = 42.1851851851852): 4.025; Tht category (> 1.5 to blank = +) ([2]; category 1/0): 1 (ThT. Cat is 1, if Rel. ThT >2); Infection (FigS19 A) ([3]; 0.26 µM peptide): 15326.66667 RLU/s; Infection (FigS19 A) ([3]; 1.3 µM peptide): 20796.66667 RLU/s; Infection (FigS19 A) ([3]; 6.5 µM peptide): 12450 RLU/s; Absolute Infectivity / RLU /s (Feb2021) ([3]; Feb2021, figures match the 1.3 µM column): 20796.66667 RLU /s; n-fold to virus (Feb2021) ([3]; Feb2021, infectivity relative to virus only): 15.92; Log10 of Rel to EFC (Feb2021) ([3]; Feb2021, log10 of infectivity relative to EF-C): -0.4216; Rel-to EFC (Feb-2021) ([3]; Feb2021, n-fold infectivity relative to EF-C): 0.3788; Rel-to EFC ([3]; Fig S8 panels B, D, infectivity enhancement relative to EF-C): 0.3788; n-fold to virus ([3]; Fig S8 panels B, D, infectivity n-fold relative to virus alone): 15.92; infectivity ([3]; infectivity class (low / medium / high) of each library peptide, main list in c1-c6, same classes repeated in sub-lists of sequences containing the hydrophobicity/charge patterns P+,H0,P+,H0,P0,H0,P0, P+,H0,P0,H0,P0,H0,P0, P+,H0,P0,H0): medium; Log10 Inf. rel. to EF-C ([3]; log10 of HIV-1 infection of TZM-bl cells relative to EF-C, Fig S15 source data, asymmetric std dev errors): -0.4216 |

Reference: PMC10447463, “Data-mining unveils structure–property–activity correlation of viral infectivity enhancing self-assembling peptides” (Nature Communications, 2023)
